Data reported in patent US20230174571A1, “METHOD OF TREATING SHIP1-MEDIATED DISEASES USING PELOROL DERIVATIVES” (Zebrapeutics Inc., priority 2020, published 2023).

How the values were obtained:
[1] = test system: LPS-induced TNFα; experiment: Mouse endotoxemia model: serum TNFα after i.p. LPS; assay type: in vivo; conditions: 1 h
Description: Mouse Endotoxemia Model. Groups of 6-8 week old BALB/c SHIP1+/+ and SHIP1−/−mice were intraperitoneally injected with either 1 or 5 mg/kg of LPS with or without co-administration of 1 mg/kg of IL10. Blood was drawn 1 hour later by cardiac puncture for determination of plasma cytokine levels by ELISA. ELISA kits were purchased from BD Biosciences (Mississauga, ON) for TNFα.
A role for STAT3 in mediating IL10 inhibition of TNFα in vivo was first described by Takeda et al (Takeda et al., 1999). […] This implies that a protein other than STAT3 might contribute to IL10 action. […] Presently, the ability of IL10 to inhibit LPS-induced inflammatory cytokine/chemokine expression in vivo is shown (FIG. 1A) in SHIP1^+/+ and SHIP1^−/− mice, and found IL10 inhibited TNFα in SHIP1^+/+ but not SHIP1^−/− mice. It was previously shown that SHIP1 phosphatase activity is allosterically stimulated by its product PI(3,4)P2 (Ong et al., 2007). […] Presently, it is shown that compound I-1 inhibits LPS-induced TNFα in SHIP1^+/+ but not SHIP1^−/− mice, showing that these compounds can mimic anti-inflammatory properties of IL10 and is indeed specific for SHIP1 (FIG. 1B).
Data represent means of *p<0.05, **p<0.01 when compared with LPS-alone-stimulated mice, ns=not significant. […] Fractions were collected every 5 min for measurement of TNFα levels Data are representative of two independent experiments.

[2] = target: T1, SHIP1 and STAT3 (Mus musculus, UniProt Q9ES52, Y190F); experiment: In vitro pull down assay of His6-SHIP1 with STAT3; assay type: cell-based; conditions: Y190F vs wild-type SHIP1 cells; 5 minutes stimulation
T1 construct: expressed in transfected cells; host or cells: J17 (SHIP1-/- mouse BMDM-derived line), lentiviral transduction
T1 sequence (Q9ES52 1-1191 Y190F): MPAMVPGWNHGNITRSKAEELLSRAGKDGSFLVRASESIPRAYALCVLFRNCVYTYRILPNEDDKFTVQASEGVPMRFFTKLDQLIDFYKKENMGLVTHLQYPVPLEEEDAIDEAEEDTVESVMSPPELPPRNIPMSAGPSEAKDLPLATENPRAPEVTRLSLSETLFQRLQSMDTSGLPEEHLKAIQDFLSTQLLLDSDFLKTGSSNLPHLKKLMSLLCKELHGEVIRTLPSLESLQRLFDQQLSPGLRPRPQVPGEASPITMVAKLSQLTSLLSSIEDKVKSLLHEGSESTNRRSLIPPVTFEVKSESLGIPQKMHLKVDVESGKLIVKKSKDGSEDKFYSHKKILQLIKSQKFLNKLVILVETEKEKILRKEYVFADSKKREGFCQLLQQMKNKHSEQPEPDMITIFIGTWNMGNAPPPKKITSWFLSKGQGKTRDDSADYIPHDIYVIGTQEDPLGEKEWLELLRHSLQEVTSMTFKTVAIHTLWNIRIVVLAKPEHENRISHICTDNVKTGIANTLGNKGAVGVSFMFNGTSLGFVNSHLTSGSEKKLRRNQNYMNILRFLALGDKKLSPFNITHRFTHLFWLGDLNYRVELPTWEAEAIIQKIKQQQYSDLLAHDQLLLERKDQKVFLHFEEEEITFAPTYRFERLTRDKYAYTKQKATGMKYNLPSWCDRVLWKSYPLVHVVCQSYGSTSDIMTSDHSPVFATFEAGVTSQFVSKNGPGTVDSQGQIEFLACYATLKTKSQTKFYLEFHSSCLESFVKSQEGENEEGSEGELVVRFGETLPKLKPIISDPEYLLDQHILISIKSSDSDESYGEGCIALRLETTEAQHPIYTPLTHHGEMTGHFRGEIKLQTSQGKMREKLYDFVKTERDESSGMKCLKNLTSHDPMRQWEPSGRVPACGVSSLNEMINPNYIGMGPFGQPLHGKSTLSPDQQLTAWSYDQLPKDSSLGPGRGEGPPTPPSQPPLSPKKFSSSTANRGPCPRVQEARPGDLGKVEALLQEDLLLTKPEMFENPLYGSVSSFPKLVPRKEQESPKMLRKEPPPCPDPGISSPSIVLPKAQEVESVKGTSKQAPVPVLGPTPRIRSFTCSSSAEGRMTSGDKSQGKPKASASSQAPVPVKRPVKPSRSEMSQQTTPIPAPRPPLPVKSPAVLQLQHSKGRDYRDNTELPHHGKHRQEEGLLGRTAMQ
Description: In vitro pull down assay. J17 His6-SHIP1 and Y190F cells were seeded at 2×10^6 cells per well in a 6-well plate. After overnight incubation, fresh cell media was added for 30 minutes before stimulation with 100 ng/ml IL10, […] or 20 μM compound I-2 for 5 minutes. Cells were lysed with Protein Solubilization Buffer (PSB, 50 mM Hepes, pH 7.5, […], 10 mM Na Pyrophosphate, 2 mM NaVO4, 2 mM Na Molybdate, 2 mM EDTA) containing 1% octylglucoside, 0.01 M imidazole, and protease inhibitor cocktail (Roche Diagnostics, Laval, QC) for 30 minutes at 4° C. and centrifuged at 10000 rpm for 15 minutes. EDTA resistant Ni beads (Roche Diagnostics, Laval, QC) were added to supernatants and the mixture incubated at 4° C. for 1 hour before spinning down and washing of beads three times with 0.1% octylglucoside wash buffer in PSB. Bead samples and starting material cell lysates were separated on a 7.5% SDS-PAGE gel.
Immunoblotting. Protein lysates were separated on SDS-PAGE gels and transferred onto polyvinylidene fluoride (PVDF) membrane (Millipore, Etobicoke, ON). Membranes were blocked and probed, where appropriate, with the following primary antibodies overnight: SHIP1 (P1C1) (Santa Cruz Biotechnology), pSHIP1 (Y190) (Kinexus), STAT3 (9D8) (ThermoFisher Scientific), pSTAT3 (Y705) (Thermo Fisher Scientific), STAT1 (BD Transduction Laboratories), pSTAT1 (Y701) (Upstate Biotechnology), GAPDH and actin (Sigma-Aldrich). Membranes were developed with either Alexa Fluor® 660 anti-mouse IgG or Alexa Fluor® 680 anti-rabbit IgG antibodies (Thermo Fisher Scientific) and imaged using a LI-COR Odyssey Imager.

| Compound | LPS-induced TNFα (serum) ([1]; SHIP1+/+ mice) | LPS-induced TNFα (serum) ([1]; SHIP1−/− mice) | reduction of Y190F SHIP1 mutant ability to interact with STAT3 [2] [fold] |
| --- | --- | --- | --- |
| Cc1cc(O)cc2c1C1(C)CCC3C(C)(C)CCCC3(C)C1C2 (stereo not drawn) [Compound I-1] | inhibits | not |  |
| CC12CCC3C(C)(C)C(N)CCC3(C)C1Cc1cc(O)cc(O)c12 (stereo not drawn) [Compound I-2] |  |  | 2 |
| IL10: anti-inflammatory cytokine interleukin-10 | inhibited | not | 2 |
